According to patent publication US9738932B2, “Biomarkers for cardiovascular side-effects induced by cox-2 inhibitory compounds” (FIRALIS SAS, priority 2005, dated 2017):

Experiments:
[1] = system: mRNA expression in cardiovascular tissues; assay: Affymetrix GeneChip mRNA expression profiling of monkey tissues (iliac vein, pulmonary vein, aorta, carotid artery, heart) after two-week oral-gavage treatment; conditions: iliac vein; group average (Vioxx without A60055)
[2] = system: mRNA expression in cardiovascular tissues; conditions: cynomolgus monkey, in vivo

Cc1ccc(-c2cc(C(F)(F)F)nn2-c2ccc(S(N)(=O)=O)cc2)cc1 [Celebrex]
1.3 fold: B2M (216231_s_at) mRNA expression, Avg fold changes vs control [1] | CDC2 (210559_s_at) mRNA expression, Avg fold changes vs control [1] | FCER1G (204232_at) mRNA expression, Avg fold changes vs control [1] | HLA-A (213932_x_at) mRNA expression, Avg fold changes vs control [1] | B2M (201891_s_at) avg fold change vs control [2] | CCL3 (205114_s_at) avg fold change vs control [2] | CD74 (209619_at) avg fold change vs control [2] | FCGR3A (204006_s_at) avg fold change vs control [2] | TNFSF10 (202687_s_at) avg fold change vs control [2] | TNFSF10 (202688_at) avg fold change vs control [2] | BTN3A3 (204820_s_at) avg fold change vs control ([2]; 2 weeks) | CCL8 (214038_at) avg fold change vs control ([2]; 2 weeks) | CTSC (201487_at) avg fold change vs control ([2]; 2 weeks)
1.7 fold: CD48 (204118_at) mRNA expression, Avg fold changes vs control [1] | CYBB (203922_s_at) mRNA expression, Avg fold changes vs control [1] | PIK3CD (203879_at) mRNA expression, Avg fold changes vs control [1] | BTN3A1 (207485_x_at) avg fold change vs control [2] | HLA-DRB1 (215193_x_at) avg fold change vs control [2]
2.3 fold: CD53 (203416_at) mRNA expression, Avg fold changes vs control [1] | CCL2 (216598_s_at) avg fold change vs control ([2]; 2 weeks)
3.2 fold: CD3D (213539_at) avg fold change vs control ([2]; 2 weeks)
0.9 fold: BCL6 (215990_s_at) mRNA expression, Avg fold changes vs control [1] | CCR1 (205098_at) mRNA expression, Avg fold changes vs control [1] | EMP3 (203729_at) mRNA expression, Avg fold changes vs control [1] | ICAM1 (202637_s_at) mRNA expression, Avg fold changes vs control [1] | IL13RA1 (210904_s_at) mRNA expression, Avg fold changes vs control [1] | TCIRG1 (204158_s_at) mRNA expression, Avg fold changes vs control [1] | TMPO (209753_s_at) mRNA expression, Avg fold changes vs control [1] | CCL5 (1405_i_at) avg fold change vs control [2] | GZMB (210164_at) avg fold change vs control [2] | C1R (212067_s_at) avg fold change vs control ([2]; 2 weeks)
2.1 fold: IRF7 (208436_s_at) avg fold change vs control [2]
1.4 fold: FCGR2A (203561_at) mRNA expression, Avg fold changes vs control [1] | HLA-DMA (217478_s_at) avg fold change vs control [2] | PLA2G4C (209785_s_at) avg fold change vs control [2] | CXCL9 (203915_at) avg fold change vs control ([2]; 2 weeks)
1.6 fold: BTN3A3 (204821_at) avg fold change vs control [2] | C4A (208451_s_at) avg fold change vs control [2] | HLA-DQB1 (211656_x_at) avg fold change vs control [2] | CXCL11 (211122_s_at) avg fold change vs control ([2]; 2 weeks)
2.5 fold: TRB@ (210915_x_at) mRNA expression, Avg fold changes vs control [1]
3.8 fold: LRMP (204674_at) avg fold change vs control [2]
1.5 fold: CD2 (205831_at) mRNA expression, Avg fold changes vs control [1] | HCLS1 (202957_at) mRNA expression, Avg fold changes vs control [1] | HEM1 (209734_at) mRNA expression, Avg fold changes vs control [1] | TNFRSF21 (218856_at) mRNA expression, Avg fold changes vs control [1] | AIF1 (209901_x_at) avg fold change vs control [2] | C1QA (218232_at) avg fold change vs control ([2]; 2 weeks) | CCL18 (209924_at) avg fold change vs control ([2]; 2 weeks)
0.8 fold: ACE (209749_s_at) mRNA expression, Avg fold changes vs control [1] | FKBP11 (219117_s_at) mRNA expression, Avg fold changes vs control [1] | THY1 (213869_x_at) mRNA expression, Avg fold changes vs control [1] | CLU (208791_at) avg fold change vs control ([2]; 2 weeks)
1.1 fold: GP6 (220336_s_at) mRNA expression, Avg fold changes vs control [1] | HLA-A (210514_x_at) mRNA expression, Avg fold changes vs control [1] | STAT1 (200887_s_at) mRNA expression, Avg fold changes vs control [1] | STAT1 (AFFX-HUMISGF3A/M97935_3_at) mRNA expression, Avg fold changes vs control [1] | TMSB10 (217733_s_at) mRNA expression, Avg fold changes vs control [1] | C2 (203052_at) avg fold change vs control [2] | CX3CR1 (205898_at) avg fold change vs control [2] | ECGF1 (204858_s_at) avg fold change vs control [2] | IRF1 (202531_at) avg fold change vs control [2] | BTN3A3 (38241_at) avg fold change vs control ([2]; 2 weeks) | C1QB (202953_at) avg fold change vs control ([2]; 2 weeks) | CD14 (201743_at) avg fold change vs control ([2]; 2 weeks) | CXCL10 (204533_at) avg fold change vs control ([2]; 2 weeks) | CXCL12 (209687_at) avg fold change vs control ([2]; 2 weeks)
3.6 fold: LAIR1 (208071_s_at) avg fold change vs control [2]
3.7 fold: CXCL11 (210163_at) avg fold change vs control ([2]; 2 weeks)
1.0 fold: FCGRT (218831_s_at) mRNA expression, Avg fold changes vs control [1] | FKBP11 (219118_at) mRNA expression, Avg fold changes vs control [1] | HLA-C (211799_x_at) mRNA expression, Avg fold changes vs control [1] | STAT3 (208992_s_at) mRNA expression, Avg fold changes vs control [1] | C1S (208747_s_at) avg fold change vs control [2] | ISGF3G (203882_at) avg fold change vs control [2] | BCL3 (204908_s_at) avg fold change vs control ([2]; 2 weeks) | CD8A (205758_at) avg fold change vs control ([2]; 2 weeks) | CMAH (210571_s_at) avg fold change vs control ([2]; 2 weeks) | CTSK (202450_s_at) avg fold change vs control ([2]; 2 weeks)
2.0 fold: PTPN7 (204852_s_at) mRNA expression, Avg fold changes vs control [1] | AIF1 (213095_x_at) avg fold change vs control [2] | CCL19 (210072_at) avg fold change vs control [2]
1.2 fold: BTN2A2 (205298_s_at) mRNA expression, Avg fold changes vs control [1] | HLA-E (200904_at) mRNA expression, Avg fold changes vs control [1] | HLA-F (221978_at) mRNA expression, Avg fold changes vs control [1] | PRKCBP1 (209048_s_at) mRNA expression, Avg fold changes vs control [1] | PRKCBP1 (209049_s_at) mRNA expression, Avg fold changes vs control [1] | SIGIRR (52940_at) mRNA expression, Avg fold changes vs control [1] | CASP1 (211367_s_at) avg fold change vs control [2] | CCNB2 (202705_at) avg fold change vs control [2] | DUSP6 (208893_s_at) avg fold change vs control [2] | 209813_x_at avg fold change vs control ([2]; 2 weeks) | CASP1 (209970_x_at) avg fold change vs control ([2]; 2 weeks) | CTSS (202902_s_at) avg fold change vs control ([2]; 2 weeks) | CYBA (203028_s_at) avg fold change vs control ([2]; 2 weeks) | CYBB (203923_s_at) avg fold change vs control ([2]; 2 weeks)
2.4 fold: TRB@ (213193_x_at) mRNA expression, Avg fold changes vs control [1]
